Measurements reported in ChEMBL document CHEMBL2380227, “Ginkgetin induces apoptosis via activation of caspase and inhibition of survival genes in PC-3 prostate cancer cells” (Bioorg Med Chem Lett, 2013).
Activity calls are given as the source filed them.

Legend:
[1] = tested on: PC-3; assay: Induction of apoptosis in human PC3 cells assessed as increase in PARP cleavage at 30 uM after 24 hrs by Western blotting in presence of Z-DEVD-FMK; type: functional, cell-based
[2] = tested on: PC-3; assay: Induction of apoptosis in human PC3 cells assessed as increase in caspase-3 cleavage at 30 uM after 24 hrs by Western blotting in presence of Z-DEVD-FMK; type: functional, cell-based
[3] = tested on: PC-3; assay: Cell cycle arrest in human PC3 cells assessed as sub-G1 accumulation at 30 uM after 24 hrs by propidium iodide staining-based flow cytometry in presence of Z-DEVD-FMK; type: functional
[4] = tested on: PC-3; assay: Induction of apoptosis in human PC3 cells assessed as supression of Cyclin-D1 mRNA expression at 15 to 30 uM after 24 hrs by RT-PCR analysis; type: functional, cell-based
[5] = tested on: PC-3; assay: Induction of apoptosis in human PC3 cells assessed as supression of survivin mRNA expression at 15 to 30 uM after 24 hrs by RT-PCR analysis; type: functional, cell-based
[6] = tested on: PC-3; assay: Induction of apoptosis in human PC3 cells assessed as supression of Bcl-XL mRNA expression at 15 to 30 uM after 24 hrs by RT-PCR analysis; type: functional, cell-based
[7] = tested on: PC-3; assay: Induction of apoptosis in human PC3 cells assessed as supression of Bcl-2 mRNA expression at 15 to 30 uM after 24 hrs by RT-PCR analysis; type: functional, cell-based
[8] = tested on: PC-3; assay: Induction of apoptosis in human PC3 cells assessed as supression of Cyclin-D1 expression at 15 to 30 uM after 24 hrs by Western blotting; type: functional, cell-based
[9] = tested on: PC-3; assay: Induction of apoptosis in human PC3 cells assessed as supression of survivin expression at 15 to 30 uM after 24 hrs by Western blotting; type: functional, cell-based
[10] = tested on: PC-3; assay: Induction of apoptosis in human PC3 cells assessed as supression of Bcl-XL expression at 15 to 30 uM after 24 hrs by Western blotting; type: functional, cell-based
[11] = tested on: PC-3; assay: Induction of apoptosis in human PC3 cells assessed as supression of Bcl-2 expression at 15 to 30 uM after 24 hrs by Western blotting; type: functional, cell-based
[12] = tested on: PC-3; assay: Induction of apoptosis in human PC3 cells assessed as increase in caspase-3 cleavage at 15 to 30 uM after 24 hrs by immunofluorescence assay relative to control; type: functional, cell-based
[13] = tested on: PC-3; assay: Induction of apoptosis in human PC3 cells assessed as increase in PARP cleavage at 15 to 30 uM after 24 hrs by Western blotting; type: functional, cell-based
[14] = tested on: PC-3; assay: Induction of apoptosis in human PC3 cells assessed as increase in caspase-3 cleavage at 15 to 30 uM after 24 hrs by Western blotting; type: functional, cell-based
[15] = tested on: PC-3; assay: Cell cycle arrest in human PC3 cells assessed as sub-G1 accumulation after 24 hrs by propidium iodide staining-based flow cytometry; type: functional
[16] = tested on: PC-3; assay: Induction of apoptosis in human PC3 cells assessed as cell shrinkage at 15 to 30 uM after 24 hrs by inverted microscopy; type: functional, cell-based
[17] = tested on: PC-3; assay: Induction of apoptosis in human PC3 cells assessed as apoptotic bodies at 15 to 30 uM after 24 hrs by inverted microscopy; type: functional, cell-based
[18] = tested on: PC-3; assay: Cytotoxicity against human PC3 cells after 24 hrs by MTT assay; type: functional, cell-based

Measured: Activity

COc1cc(O)c2c(=O)cc(-c3ccc(OC)c(-c4c(O)cc(O)c5c(=O)cc(-c6ccc(O)cc6)oc45)c3)oc2c1
active: [1] | [2] | [3] | [4] | [5] | [6] | [7] | [8] | [9] | [10] | [11] | [12] | [13] | [14] | [15] Dose-dependent effect | [16] | [17] | [18] Dose-dependent effect
